These results are taken from US10047105B2, “Gyrase inhibitors” (Merck Sharp & Dohme Corp., priority 2009, dated 2018).

Values after ≈ are worked out from the molar mass of the structure shown.

What all share (format): cell-based
One assay relates to E. coli 8 ATCC 25922. Nature of the assay: MIC, E. coli 8 (wt). The conditions noted are these: E. coli 8 (EC8).
In another assay the test system is S. pneumoniae ATCC 51916. The assay can be described thus: MIC, S. pneumoniae. The conditions noted are these: S. pneumoniae (Spn52); in µg/mL.
A further assay deals with S. aureus ATCC 13709. The assay can be described thus: MIC, antibacterial potency, S. aureus. The following applies: S. aureus (SA); in µg/mL.

For `CCc1[nH]c2nc(Oc3ccc4nccnc4c3)ncc2c1Cl` [701,238], the MIC EC8 with E. coli 8 ATCC 25922 is > 64 µg/mL. In addition, in the assay with S. pneumoniae ATCC 51916, the “MIC Spn52” value is 32. In the assay with S. aureus ATCC 13709, the “MIC, SA” value was 4.

For `CCc1[nH]c2nc(Sc3cncc(C#N)c3)nc(N3CC4C(C3)C4(N)C(N)=O)c2c1Cl` (stereo not drawn) [700,969], in the assay with E. coli 8 ATCC 25922, the MIC EC8 was > 64 µg/mL. In addition, the “MIC Spn52” value in the assay on S. pneumoniae ATCC 51916 worked out at 2. The “MIC, SA” value in the assay with S. aureus ATCC 13709 is recorded as “<=0.5”.

For `CCc1[nH]c2nc(Oc3cncnc3)nc(Oc3cc(O)cc(C#N)c3)c2c1Cl` [701,264], the MIC EC8 in the assay on E. coli 8 ATCC 25922 is > 64 µg/mL. Further, the “MIC Spn52” value against S. pneumoniae ATCC 51916 is recorded as “<=0.5”. The “MIC, SA” value in the assay with S. aureus ATCC 13709 is given as “<=0.5”.

The compound `N[C@@H]1CCN(c2nc(Sc3cnc4nccnc4c3)nc3[nH]c(C4CC4)c(Cl)c23)C1` [700,977] returned an MIC EC8 against E. coli 8 ATCC 25922 of 8 µg/mL (≈ 18.2 µM). In addition, the “MIC Spn52” value against S. pneumoniae ATCC 51916 stood at 4. In the assay with S. aureus ATCC 13709, the “MIC, SA” value came to 16.

On to `CCc1[nH]c2nc(Oc3cncnc3)nc(N3CC4C(N)C4C3)c2c1Cl` (stereo not drawn) [700,911], for which the MIC EC8 against E. coli 8 ATCC 25922 is > 32 µg/mL. Also, the “MIC Spn52” value in the assay with S. pneumoniae ATCC 51916 is 2. The “MIC, SA” value in the assay with S. aureus ATCC 13709 amounted to 1.

In the assay with E. coli 8 ATCC 25922, `CCc1[nH]c2nc(Sc3cnc4ccc[n+]([O-])c4c3)nc(N3CC4CCNC4C3)c2c1Cl` (stereo not drawn) [701,026] had an MIC EC8 of 8 µg/mL (≈ 17.1 µM). Moreover, the “MIC Spn52” value in the assay on S. pneumoniae ATCC 51916 was determined as 1. In the assay on S. aureus ATCC 13709, the “MIC, SA” value was “<=0.5”.

Turning to `CCc1[nH]c2nc(Sc3ccc4c(N5CC[C@@H](N)C5)nc(C(=O)O)nc4c3)nc(N3CC[C@@H](N)C3)c2c1Cl` [700,955], the MIC EC8 against E. coli 8 ATCC 25922 was 16 µg/mL (≈ 28.9 µM). Further, the “MIC Spn52” value in the assay with S. pneumoniae ATCC 51916 was >64. Also, the “MIC, SA” value in the assay on S. aureus ATCC 13709 turned out to be 8.

Regarding `CCc1[nH]c2nc(Oc3cncnc3)nc(Oc3cc(O)cc(C#N)c3)c2c1Br` [701,249], the MIC EC8 with E. coli 8 ATCC 25922 is 8 µg/mL (≈ 17.7 µM). For the same compound, the “MIC Spn52” value in the assay with S. pneumoniae ATCC 51916 is listed as “<=0.5”. The “MIC, SA” value against S. aureus ATCC 13709 is listed as “<=0.5”.

With `CCc1[nH]c2nc(Oc3cc(C#N)c(OC)c(OC)c3)nc(Oc3ccc4nccnc4c3)c2c1Br` [701,081], the MIC EC8 against E. coli 8 ATCC 25922 was > 32 µg/mL. Besides, the “MIC Spn52” value in the assay on S. pneumoniae ATCC 51916 was “<=0.5”. In addition, the “MIC, SA” value against S. aureus ATCC 13709 is listed as “<=0.5”.

As to `CCc1[nH]c2nc(Oc3cncc(OC)c3)nc(Oc3cncc(OC)c3)c2c1Br` [700,937], the MIC EC8 with E. coli 8 ATCC 25922 was > 64 µg/mL. Further, the “MIC Spn52” value against S. pneumoniae ATCC 51916 came to 1. Also, in the assay on S. aureus ATCC 13709, the “MIC, SA” value is given as “<=0.5”.

The compound `CCc1[nH]c2nc(Sc3ccc4nc(N5CC(N)C5)cnc4c3)nc(N3C[C@@H]4C(N)[C@@H]4C3)c2c1Cl` (stereo partly drawn) [701,013] displayed an MIC EC8 with E. coli 8 ATCC 25922 of 16 µg/mL (≈ 31.5 µM). Besides, the “MIC Spn52” value with S. pneumoniae ATCC 51916 was 2. In addition, in the assay with S. aureus ATCC 13709, the “MIC, SA” value is given as 1.

As for `CCc1[nH]c2nc(Oc3cnc(C)nc3)nc(Oc3cc(C#N)ccc3F)c2c1Br` [701,288], in the assay on E. coli 8 ATCC 25922, the MIC EC8 was > 64 µg/mL. For the same compound, the “MIC Spn52” value in the assay on S. pneumoniae ATCC 51916 is given as 1. In addition, the “MIC, SA” value against S. aureus ATCC 13709 is reported as “<=0.5”.

Consider `CCc1[nH]c2nc(Sc3cnc4cccnc4c3)nc(N3CC[C@@H](N)C3)c2c1Cl.O=C(O)C(F)(F)F.O=C(O)C(F)(F)F` [700,795], for which the MIC EC8 in the assay with E. coli 8 ATCC 25922 was 8 µg/mL. Further, the “MIC Spn52” value in the assay with S. pneumoniae ATCC 51916 is reported as “<=0.5”. Moreover, the “MIC, SA” value in the assay on S. aureus ATCC 13709 is “<=0.5”.

As to `CCc1[nH]c2nc(Oc3cc4ncn(C)c4[n+]([O-])c3)nc(Oc3cnc4c(c3)ncn4C)c2c1Cl` [701,067], the MIC EC8 with E. coli 8 ATCC 25922 was > 64 µg/mL. In the assay with S. pneumoniae ATCC 51916, the “MIC Spn52” value was >64. Moreover, the “MIC, SA” value against S. aureus ATCC 13709 is listed as >64.

Turning to `CCc1[nH]c2nc(Oc3cnc(C)nc3)nc(Oc3cnc(C)nc3)c2c1Br` [701,254], the MIC EC8 against E. coli 8 ATCC 25922 was > 64 µg/mL. In addition, in the assay on S. pneumoniae ATCC 51916, the “MIC Spn52” value is “<=0.5”. Besides, the “MIC, SA” value against S. aureus ATCC 13709 is reported as “<=0.5”.

As for `CCNC(=O)NC1C2CN(c3nc(Sc4cnc5cccnc5c4)nc4[nH]c(CC)c(Cl)c34)CC21` (stereo not drawn) [701,028], in the assay with E. coli 8 ATCC 25922, the MIC EC8 was > 64 µg/mL. The “MIC Spn52” value in the assay with S. pneumoniae ATCC 51916 is recorded as “<=0.5”. Also, the “MIC, SA” value in the assay with S. aureus ATCC 13709 was “<=0.5”.

`CCc1[nH]c2nc(Sc3ccc4cncnc4c3)nc(N3CC[C@@H](N)C3)c2c1Cl` [701,049] returned an MIC EC8 against E. coli 8 ATCC 25922 of 8 µg/mL (≈ 18.8 µM). Further, the “MIC Spn52” value in the assay on S. pneumoniae ATCC 51916 is given as “<=0.5”. The “MIC, SA” value in the assay with S. aureus ATCC 13709 is given as “<=0.5”.

Consider `CCc1[nH]c2nc(Oc3cnc4c(c3)ncn4C)nc(N3CC[C@@H](N)C3)c2c1Cl` [701,033], for which, in the assay on E. coli 8 ATCC 25922, the MIC EC8 was > 64 µg/mL. For the same compound, the “MIC Spn52” value with S. pneumoniae ATCC 51916 is >64. For the same compound, the “MIC, SA” value with S. aureus ATCC 13709 was >64.

As for `CCc1[nH]c2nc(Sc3ccc4c(Oc5cccc(CNC)c5)cc(C)nc4c3)nc(N3CC[C@@H](N)C3)c2c1Cl` [700,912], the MIC EC8 in the assay on E. coli 8 ATCC 25922 was 32 µg/mL (≈ 55.7 µM). The “MIC Spn52” value against S. pneumoniae ATCC 51916 is >64. The “MIC, SA” value in the assay on S. aureus ATCC 13709 was 8.

In the assay on E. coli 8 ATCC 25922, `CCc1[nH]c2nc(Oc3cncnc3)nc(Oc3cc(Cl)cc(N4CC(N)C4)c3)c2c1Br` [701,273] displayed an MIC EC8 of 16 µg/mL (≈ 31 µM). Further, the “MIC Spn52” value in the assay with S. pneumoniae ATCC 51916 is on record as “<=0.5”. Also, the “MIC, SA” value against S. aureus ATCC 13709 is given as “<=0.5”.

Regarding `CCc1[nH]c2nc(Sc3cnc4nccnc4c3)nc(N3C[C@@H](O)[C@@H](N)C3)c2c1Cl` [701,119], the MIC EC8 against E. coli 8 ATCC 25922 was > 64 µg/mL. In addition, in the assay with S. pneumoniae ATCC 51916, the “MIC Spn52” value turned out to be 16. Further, in the assay on S. aureus ATCC 13709, the “MIC, SA” value came to 32.

Regarding `CCc1[nH]c2nc(Sc3cnc4c(c3)c(=O)ncn4C)nc(N3CC4C(N)C4C3)c2c1C` (stereo not drawn) [701,292], in the assay with E. coli 8 ATCC 25922, the MIC EC8 was > 32 µg/mL. Besides, in the assay with S. pneumoniae ATCC 51916, the “MIC Spn52” value is listed as >32. Further, in the assay on S. aureus ATCC 13709, the “MIC, SA” value amounted to 32.
